Laboratory results as given in US20080268036A1, “Co-processing of active pharmaceutical/nutraceutical ingredients” (JRS Pharma, priority 2007, published 2008).

Assay type: physicochemical
Excerpt: The slurry should be thoroughly agitated during preparation with a suitable device (like an electric lab stirrer). The desired temperature for heating the slurry will vary depending on the solubility of the active agent and the temperature that the active agent begins to degrade.

temperature dependent solubility in water: greater than 60 °C
Structure (SMILES): Cl.N[C@H]1C(O)O[C@H](CO)[C@@H](O)[C@@H]1O (stereo partly shown) [Glucosamine HCl]
